Source: PMC8233418, “Structure and transport mechanism of P5B-ATPases” (Nature Communications, 2021)

Key:
Ypk9 [1] = biological target: T1, Ypk9 (Thermochaetoides thermophila, UniProt G0S7G9); assay: ATPase activity, malachite green phosphate release; type: biochemical; conditions: 5 mM MgCl2, pH 7.0, 37 °C
T1 construct: gene CTHT_0028100; full length, introns removed; N- or C-terminal TEV-G4S-GFP-His10 fusion, made in S. cerevisiae PAP1500; purified in DDM/CHS (ATPase assay) or reconstituted in nanodiscs (cryo-EM)

Ypk9 [2] = biological target: T1, Ypk9; assay: cryo-EM structure (E2.Pi-SPM […] Å; E2.Pi-AlF/SPM […] Å; E2P* […] Å); type: binding; conditions: 1 mM SPM with 1 mM MgCl2, AlF or BeF3−; nanodiscs; luminal cleft between TM2, 4 and 6
Ypk9 [3] = biological target: T1, Ypk9; assay: ATPase activity, malachite green phosphate release; type: biochemical; conditions: 6 mM SPM, 1 mM ATP, 5 mM MgCl2, 100 mM KCl, pH 7.0, 37 °C, DDM/CHS

T1 sequence (G0S7G9 entry or part of it): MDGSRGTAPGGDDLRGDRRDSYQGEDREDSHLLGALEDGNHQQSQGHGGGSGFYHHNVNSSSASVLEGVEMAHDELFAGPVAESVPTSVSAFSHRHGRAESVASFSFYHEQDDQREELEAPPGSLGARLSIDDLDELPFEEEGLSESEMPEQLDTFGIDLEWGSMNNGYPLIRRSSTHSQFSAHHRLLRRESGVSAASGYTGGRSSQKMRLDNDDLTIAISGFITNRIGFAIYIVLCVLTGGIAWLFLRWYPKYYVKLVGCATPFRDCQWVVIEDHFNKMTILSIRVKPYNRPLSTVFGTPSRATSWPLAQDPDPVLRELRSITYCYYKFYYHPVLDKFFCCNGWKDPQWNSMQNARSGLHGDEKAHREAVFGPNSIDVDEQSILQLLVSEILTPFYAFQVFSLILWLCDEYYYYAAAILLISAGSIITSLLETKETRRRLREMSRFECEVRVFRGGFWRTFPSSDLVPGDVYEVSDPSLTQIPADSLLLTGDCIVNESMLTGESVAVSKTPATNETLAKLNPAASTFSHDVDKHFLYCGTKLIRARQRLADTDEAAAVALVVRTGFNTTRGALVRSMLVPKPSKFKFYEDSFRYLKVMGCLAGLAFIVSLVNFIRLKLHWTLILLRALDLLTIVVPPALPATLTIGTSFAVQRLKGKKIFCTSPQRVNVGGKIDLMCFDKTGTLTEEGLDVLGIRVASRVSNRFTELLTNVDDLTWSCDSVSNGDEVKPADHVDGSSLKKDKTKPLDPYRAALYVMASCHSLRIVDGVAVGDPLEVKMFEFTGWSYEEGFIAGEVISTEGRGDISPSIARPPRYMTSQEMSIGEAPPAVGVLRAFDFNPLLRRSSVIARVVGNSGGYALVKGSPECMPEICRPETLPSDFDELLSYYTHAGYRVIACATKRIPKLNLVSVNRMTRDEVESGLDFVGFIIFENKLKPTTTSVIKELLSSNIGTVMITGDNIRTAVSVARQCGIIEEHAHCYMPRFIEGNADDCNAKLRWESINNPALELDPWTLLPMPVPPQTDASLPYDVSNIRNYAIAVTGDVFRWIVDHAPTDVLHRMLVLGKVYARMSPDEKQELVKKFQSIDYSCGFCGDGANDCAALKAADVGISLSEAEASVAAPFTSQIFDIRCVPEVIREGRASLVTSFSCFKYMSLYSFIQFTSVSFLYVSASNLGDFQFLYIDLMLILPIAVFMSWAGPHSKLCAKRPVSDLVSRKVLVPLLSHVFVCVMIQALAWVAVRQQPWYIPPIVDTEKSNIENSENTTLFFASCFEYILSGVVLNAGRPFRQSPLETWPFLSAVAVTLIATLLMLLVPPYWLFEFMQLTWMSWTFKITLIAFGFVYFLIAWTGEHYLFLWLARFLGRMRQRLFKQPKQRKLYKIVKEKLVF

[F][Be-]([F])[F] [BeF3−]
inhibition at 1 mM (Ypk9 [1]; 1 mM BeF3−, 1 mM ATP, phosphate analogue): inhibited by the inhibitors BeF3^− and NaVO4^−

[O]=[V]([OH])([OH])[OH] [NaVO4−]
inhibition at 1 mM (Ypk9 [1]; 1 mM NaVO4, 1 mM ATP): inhibited by the inhibitors BeF3^− and NaVO4^−

NCCCNCCCCNCCCN [spermine]
cryo-EM structure (E2.Pi-SPM 3.5 Å; E2.Pi-AlF/SPM 3.4 Å; E2P* 3.7 Å) (Ypk9 [2]): The cleft harbors an additional, elongated density compatible with the presence of SPM
ATPase stimulation (Ypk9 [3]): ATPase activity of purified Ypk9 is stimulated by the polyamine spermine (SPM)
